Assay results: US20250206738A1, “WRN INHIBITORS” (Nimbus Wadjet, Inc., priority 2023, published 2025)

Assays:
[1] = molecular target: T1, human Werner helicase (WRN, Uniprot Q14191, amino acids 517-1235 with L1074F point mutation; WRN-BV08) (Homo sapiens, UniProt Q14191, L1074F); assay: WRN (BV08) ADP-Glo assay; format: biochemical; conditions: WRN-BV08 (aa 517-1235, L1074F); read-out: ADP-Glo_hWRN_IC50
T1 construct: Uniprot Q14191, amino acids 517-1235 with L1074F point mutation; 8xHis (C, cleaved yes); TEV cleavage site (ENLYFQG) (C, cleaved yes); made in house; host or cells: Sf9 insect cells (baculovirus, pFastBac)
Procedure, shortened: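 WRN 517-1235 (L1074F, untagged, Sf9-expressed), 0.15 nM, preincubated with compound 15 min at 25 °C, then 60 min with […] and 0.1 nM DNA duplex in Bicine pH 7.5, 1 mM MgCl2, 1% DMSO. ADP-Glo luminescence; % inhibition vs NSC-617145 control, four-parameter IC50 fit.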

[2] = test system: p21 induction in HCT 116 cells; assay: p21 induction in cells (In-Cell Western, p21/GAPDH ratio); format: cell-based; conditions: Homo sapiens, HCT-116, 24 h, 24 h compound incubation, read-out: P21_EC50
Procedure, shortened: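 HCT 116 cells treated 24 h at 37° C with 11-point, 2-fold dilutions starting typically at 10 μM, in duplicate. Fixed cells immunostained for p21 and GAPDH; 800/700 nm ratio normalised between DMSO and reference WRN inhibitor controls as percent activation. EC50 from non-linear regression.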

T1 sequence (Q14191 with tags, fused parts or gaps L1074F): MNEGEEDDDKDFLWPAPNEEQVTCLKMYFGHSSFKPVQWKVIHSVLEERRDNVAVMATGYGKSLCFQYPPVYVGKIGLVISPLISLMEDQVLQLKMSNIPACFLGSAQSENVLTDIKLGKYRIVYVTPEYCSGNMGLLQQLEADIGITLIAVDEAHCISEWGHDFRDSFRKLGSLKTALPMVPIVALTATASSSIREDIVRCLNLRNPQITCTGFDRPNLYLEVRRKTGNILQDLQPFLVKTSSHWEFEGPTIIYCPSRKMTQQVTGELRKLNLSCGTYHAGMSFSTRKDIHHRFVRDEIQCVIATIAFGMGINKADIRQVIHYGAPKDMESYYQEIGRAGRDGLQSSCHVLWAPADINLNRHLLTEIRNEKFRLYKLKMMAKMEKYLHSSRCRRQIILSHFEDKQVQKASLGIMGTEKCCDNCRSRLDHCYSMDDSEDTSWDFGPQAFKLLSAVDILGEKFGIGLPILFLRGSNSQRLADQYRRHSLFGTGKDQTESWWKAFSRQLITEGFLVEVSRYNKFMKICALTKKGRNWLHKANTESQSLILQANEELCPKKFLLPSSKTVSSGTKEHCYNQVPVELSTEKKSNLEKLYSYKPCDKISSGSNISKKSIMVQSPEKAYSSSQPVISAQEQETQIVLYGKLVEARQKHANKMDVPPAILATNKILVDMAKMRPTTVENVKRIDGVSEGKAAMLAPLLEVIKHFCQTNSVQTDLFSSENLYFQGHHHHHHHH

Structure (SMILES)	IC50 [1] [nM]	EC50 [2] [nM]
CCc1c(N2CCN(C(=O)c3ncnc(C)c3O)[C@H]3CC[C@@H]32)c(=O)c2nn(-c3ccnc(OC(F)F)c3)nc2n1CC(=O)NC12CC(C3CC3)(C1)C2 [I-223, N-(3-cyclopropylbicyclo[1.1.1]pentan-1-yl)-2-(2-(2-(difluoromethoxy)pyridin-4-yl)-5-ethyl-6-((1S,6S)-5-(5-hydroxy-6-methylpyrimidine-4-carbonyl)-2,5-diazabicyclo[4.2.0]octan-2-yl)-7-oxo-2,7-dihydro-4H-[1,2,3]triazolo[4,5-b]pyridin-4-yl)acetamide]	5 to 50	> 5000
CCc1c(N2CCN(C(=O)c3ncnc(C)c3O)CC2)c(=O)c2oc(-c3ccnc(OC)c3)nc2n1CC(=O)NC12CC(C(F)(F)F)(C1)C2 [I-17, 2-(5-ethyl-6-(4-(5-hydroxy-6-methylpyrimidine-4-carbonyl)piperazin-1-yl)-2-(2-methoxypyridin-4-yl)-7-oxooxazolo[4,5-b]pyridin-4(7H)-yl)-N-(3-(trifluoromethyl)bicyclo[1.1.1]pentan-1-yl)acetamide]	5 to 50	2000 to 5000
CCc1c(N2CCN(C(=O)c3ncnc(C)c3O)CC2)c(=O)n2nc(-c3ccncc3)nc2n1CC(=O)NC12CC(C3CCC3)(C1)C2 [I-219, N-(3-cyclobutylbicyclo[1.1.1]pentan-1-yl)-2-(5-ethyl-6-(4-(5-hydroxy-6-methylpyrimidine-4-carbonyl)piperazin-1-yl)-7-oxo-2-(pyridin-4-yl)-[1,2,4]triazolo[1,5-a]pyrimidin-4(7H)-yl)acetamide]	5 to 50	500 to 2000
CCc1c(N2CCN(C(=O)c3cnn(C)c3)CC2)c(=O)n2nc(-c3ccnc(OC)c3)nc2n1CC(=O)N[C@@H]1C[C@H]1c1c(F)cccc1F (racemic) [I-244, rac-N-((1R,2S)-2-(2,6-difluorophenyl)cyclopropyl)-2-(5-ethyl-2-(2-methoxypyridin-4-yl)-6-(4-(1-methyl-1H-pyrazole-4-carbonyl)piperazin-1-yl)-7-oxo-[1,2,4]triazolo[1,5-a]pyrimidin-4(7H)-yl)acetamide]	100 to 500	> 5000
CCc1c(N2CCN(C(=O)c3ncnc(C)c3O)[C@H]3CC[C@@H]32)c(=O)c2nc(N(C)C)cnc2n1CC(=O)NC1CC2(CCCC2)C1 [I-230, 2-(2-(dimethylamino)-6-ethyl-7-((1S,6S)-5-(5-hydroxy-6-methylpyrimidine-4-carbonyl)-2,5-diazabicyclo[4.2.0]octan-2-yl)-8-oxopyrido[2,3-b]pyrazin-5(8H)-yl)-N-(spiro[3.4]octan-2-yl)acetamide]	5 to 50	> 5000
CCc1c(N2CCN(C(=O)c3cccc4ncoc34)CC2)c(=O)n2nc(-c3ccnc(OC)c3)nc2n1CC(=O)NC12CC(C(F)(F)F)(C1)C2 [I-231, 2-(6-(4-(benzo[d]oxazole-7-carbonyl)piperazin-1-yl)-5-ethyl-2-(2-methoxypyridin-4-yl)-7-oxo-[1,2,4]triazolo[1,5-a]pyrimidin-4(7H)-yl)-N-(3-(trifluoromethyl)bicyclo[1.1.1]pentan-1-yl)acetamide]	5 to 50	2000 to 5000
CCc1c(N2CCN(C(=O)c3ncc4c(c3O)CCO4)CC2)c(=O)n2nc(C3=CCOCC3)nc2n1CC(=O)NC12CC(C3CC3)(C1)C2 [I-9, N-(3-cyclopropylbicyclo[1.1.1]pentan-1-yl)-2-(2-(3,6-dihydro-2H-pyran-4-yl)-5-ethyl-6-(4-(4-hydroxy-2,3-dihydrofuro[2,3-c]pyridine-5-carbonyl)piperazin-1-yl)-7-oxo-[1,2,4]triazolo[1,5-a]pyrimidin-4(7H)-yl)acetamide]	5 to 50	500 to 2000
CCc1c(N2CCN(C(=O)c3c(O)ccc4ncoc34)CC2)c(=O)n2nc(-c3ccnc(OC)c3)nc2n1CC(=O)NC12CC(OC)(C1)C2 [I-241, 2-(5-ethyl-6-(4-(6-hydroxybenzo[d]oxazole-7-carbonyl)piperazin-1-yl)-2-(2-methoxypyridin-4-yl)-7-oxo-[1,2,4]triazolo[1,5-a]pyrimidin-4(7H)-yl)-N-(3-methoxybicyclo[1.1.1]pentan-1-yl)acetamide]	100 to 500	> 5000
CCc1c(N2CCN(C(=O)c3ncc4c(c3O)CCO4)CC2)c(=O)n2nc(C3=CCOCC3)nc2n1CC(=O)NC12CC(C(C)C)(C1)C2 [I-15, 2-(2-(3,6-dihydro-2H-pyran-4-yl)-5-ethyl-6-(4-(4-hydroxy-2,3-dihydrofuro[2,3-c]pyridine-5-carbonyl)piperazin-1-yl)-7-oxo-[1,2,4]triazolo[1,5-a]pyrimidin-4(7H)-yl)-N-(3-isopropylbicyclo[1.1.1]pentan-1-yl)acetamide]	5 to 50	500 to 2000
CCc1c(N2CCN(C(=O)c3ncccc3C(=O)O)[C@H]3CC[C@@H]32)c(=O)c2nn(-c3ccnc(OC)c3)nc2n1CC(=O)NC12CC(C(C)C)(C1)C2 [I-202, 2-((1S,6S)-5-(5-ethyl-4-(2-((3-isopropylbicyclo[1.1.1]pentan-1-yl)amino)-2-oxoethyl)-2-(2-methoxypyridin-4-yl)-7-oxo-4,7-dihydro-2H-[1,2,3]triazolo[4,5-b]pyridin-6-yl)-2,5-diazabicyclo[4.2.0]octane-2-carbonyl)nicotinic acid]	5 to 50	> 5000
CCc1c(N2CCN(C(=O)c3ncnc(C)c3O)[C@H]3CC[C@@H]32)c(=O)c2nc(N(C)C)cnc2n1CC(=O)NC12CC(C3CC3)(C1)C2 [I-232, N-(3-cyclopropylbicyclo[1.1.1]pentan-1-yl)-2-(2-(dimethylamino)-6-ethyl-7-((1S,6S)-5-(5-hydroxy-6-methylpyrimidine-4-carbonyl)-2,5-diazabicyclo[4.2.0]octan-2-yl)-8-oxopyrido[2,3-b]pyrazin-5(8H)-yl)acetamide]	5 to 50	500 to 2000
CCc1c(N2CCN(C(=O)c3ncnc(C)c3O)CC2)c(=O)n2nc(-c3ccnc(OC)c3)nc2n1CCC(=O)NC12CC(C(F)(F)F)(C1)C2 [I-13, 3-(5-ethyl-6-(4-(5-hydroxy-6-methylpyrimidine-4-carbonyl)piperazin-1-yl)-2-(2-methoxypyridin-4-yl)-7-oxo-[1,2,4]triazolo[1,5-a]pyrimidin-4(7H)-yl)-N-(3-(trifluoromethyl)bicyclo[1.1.1]pentan-1-yl)propanamide]	> 500	> 5000
CCc1c(N2CCN(C(=O)c3ncnc(C)c3O)CC2)c(=O)n2nc(C3=CCOCC3)nc2n1CC(=O)NC12COC(C(F)(F)F)(C1)C2 [I-26, 2-(2-(3,6-dihydro-2H-pyran-4-yl)-5-ethyl-6-(4-(5-hydroxy-6-methylpyrimidine-4-carbonyl)piperazin-1-yl)-7-oxo-[1,2,4]triazolo[1,5-a]pyrimidin-4(7H)-yl)-N-(1-(trifluoromethyl)-2-oxabicyclo[2.1.1]hexan-4-yl)acetamide]	100 to 500	> 5000
CCc1c(N2CCN(C(=O)c3c(O)ccc4ncoc34)CC2)c(=O)n2nc(-c3ccnc(OC)c3)nc2n1CC(=O)NC12C3C4C1C1C2C3C41C(F)(F)F (stereo not drawn) [I-220, 2-(5-ethyl-6-(4-(6-hydroxybenzo[d]oxazole-7-carbonyl)piperazin-1-yl)-2-(2-methoxypyridin-4-yl)-7-oxo-[1,2,4]triazolo[1,5-a]pyrimidin-4(7H)-yl)-N-(4-(trifluoromethyl)cuban-1-yl)acetamide]	5 to 50	500 to 2000
CCc1c([C@@]23CCN(C(=O)c4ncnc(C)c4O)C[C@@H]2C3)c(=O)c2nn(-c3ccnc(OC)c3)nc2n1CC(=O)NC12CC(C(C)C)(C1)C2 (relative stereo) [I-63, rel-2-{5-ethyl-6-[(1R,6S)-3-(5-hydroxy-6-methylpyrimidine-4-carbonyl)-3-azabicyclo[4.1.0]heptan-6-yl]-2-(2-methoxypyridin-4-yl)-7-oxo-2H,4H,7H-[1,2,3]triazolo[4,5-b]pyridin-4-yl}-N-[3-(propan-2-yl)bicyclo[1.1.1]pentan-1-yl]acetamide]	5 to 50	500 to 2000
CCc1c(N2CCN(C(=O)c3ncc4c(c3O)CCO4)CC2)c(=O)n2nc(C3=CCN(C(=O)COC)CC3)nc2n1CC(=O)NC12CC(C(F)(F)F)(C1)C2 [I-21, 2-(5-ethyl-6-(4-(4-hydroxy-2,3-dihydrofuro[2,3-c]pyridine-5-carbonyl)piperazin-1-yl)-2-(1-(2-methoxyacetyl)-1,2,3,6-tetrahydropyridin-4-yl)-7-oxo-[1,2,4]triazolo[1,5-a]pyrimidin-4(7H)-yl)-N-(3-(trifluoromethyl)bicyclo[1.1.1]pentan-1-yl)acetamide]	5 to 50	2000 to 5000
CCc1c(N2CCN(C(=O)c3ncc4c(c3O)CCO4)CC2)c(=O)n2nc(C3=CCOCC3)nc2n1CC(=O)NC12CC(C(C)(F)F)(C1)C2 [I-7, N-(3-(1,1-difluoroethyl)bicyclo[1.1.1]pentan-1-yl)-2-(2-(3,6-dihydro-2H-pyran-4-yl)-5-ethyl-6-(4-(4-hydroxy-2,3-dihydrofuro[2,3-c]pyridine-5-carbonyl)piperazin-1-yl)-7-oxo-[1,2,4]triazolo[1,5-a]pyrimidin-4(7H)-yl)acetamide]	5 to 50	2000 to 5000
CCc1c(N2CCN(C(=O)c3ncnc(C)c3O)[C@H]3CC[C@@H]32)c(=O)c2nc(C)c(C)nc2n1CC(=O)NC12CC(C3CCC3)(C1)C2 [I-210, N-(3-cyclobutylbicyclo[1.1.1]pentan-1-yl)-2-(6-ethyl-7-((1S,6S)-5-(5-hydroxy-6-methylpyrimidine-4-carbonyl)-2,5-diazabicyclo[4.2.0]octan-2-yl)-2,3-dimethyl-8-oxopyrido[2,3-b]pyrazin-5(8H)-yl)acetamide]	5 to 50	500 to 2000
